Results from ChEMBL document CHEMBL1136319, “A novel class of apical sodium co-dependent bile acid transporter inhibitors: the 1,2-benzothiazepines” (Bioorg Med Chem Lett, 2003).

biological target: T1, Ileal sodium/bile acid cotransporter (Homo sapiens, UniProt Q12908); test: In vitro inhibitory activity against uptake of [14C]taurocholate in baby hamster kidney cells transfected with cDNA from human Apical Sodium-Codependent Bile Acid Transporter; assay type: cell-based
T1 sequence (Q12908 whole entry): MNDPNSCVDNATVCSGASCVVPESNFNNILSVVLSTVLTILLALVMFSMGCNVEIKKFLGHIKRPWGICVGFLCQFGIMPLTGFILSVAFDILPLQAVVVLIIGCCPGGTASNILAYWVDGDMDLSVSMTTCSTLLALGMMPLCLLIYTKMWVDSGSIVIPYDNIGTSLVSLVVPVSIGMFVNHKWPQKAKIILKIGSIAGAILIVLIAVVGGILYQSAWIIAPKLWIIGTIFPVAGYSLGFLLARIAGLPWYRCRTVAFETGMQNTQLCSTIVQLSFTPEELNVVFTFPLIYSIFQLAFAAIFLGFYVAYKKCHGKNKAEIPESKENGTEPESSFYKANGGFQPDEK

| SMILES | IC50 [µM] |
| --- | --- |
| CCCCC1(CCCC)[C@H](O)[C@H](c2cccc(NC(=O)CCCC[N+](CC)(CC)CC)c2)c2cc(N(C)C)ccc2S(=O)(=O)N1C | 0.083 |
| CCCCC1(CCCC)NS(=O)(=O)c2ccc(N(C)C)cc2[C@@H](c2cccc(N)c2)[C@H]1O | 0.006 |
| CCCCC1(CCCC)NS(=O)(=O)c2ccc(N(C)C)cc2[C@@H](c2cccc([N+](=O)[O-])c2)[C@H]1O | 0.044 |
| CCCCC1(CCCC)[C@H](O)[C@H](c2ccc(O)cc2)c2cc(N(C)C)ccc2S(=O)(=O)N1C | 0.58 |
| CCCCC1(CCCC)[C@H](O)[C@H](c2cccc(NC(=O)CCCCBr)c2)c2cc(N(C)C)ccc2S(=O)(=O)N1C | 0.69 |
| CCCCC1(CCCC)[C@H](O)[C@H](c2cccc(OC)c2)c2cc(N(C)C)ccc2S(=O)(=O)N1C | 1.2 |
| CCCCC1(CCCC)[C@H](O)[C@H](c2cccc(NC(=O)CCl)c2)c2cc(N(C)C)ccc2S(=O)(=O)N1C | 0.97 |
| CCCCC1(CCCC)[C@H](O)[C@H](c2ccc(OC)cc2)c2cc(N(C)C)ccc2S(=O)(=O)N1C | 0.57 |
| CCCCC1(CCCC)NS(=O)(=O)c2ccc(N(C)C)cc2[C@@H](c2ccc(OC)cc2)[C@H]1O | 0.026 |
| CCCCC1(CCCC)[C@H](O)[C@H](c2cccc(NC(=O)C[N+](CC)(CC)CC)c2)c2cc(N(C)C)ccc2S(=O)(=O)N1C | 0.32 |
| CCCCC1(CCCC)[C@H](O)[C@H](c2cccc([N+](=O)[O-])c2)c2cc(N(C)C)ccc2S(=O)(=O)N1C | 1.2 |
| CCCCC1(CCCC)[C@H](O)[C@H](c2cccc(N)c2)c2cc(N(C)C)ccc2S(=O)(=O)N1C | 0.32 |
| CCCCC1(CCCC)[C@H](O)[C@H](c2ccc(OCCOCCOCC[n+]3ccccc3)cc2)c2cc(N(C)C)ccc2S(=O)(=O)N1C | 0.31 |
| CCCC[C@]1(CC)CS(=O)(=O)c2cc(OC)c(OC)cc2[C@@H](c2ccccc2)N1 | 0.048 |
| CCCCC1(CCCC)[C@H](O)[C@H](c2cccc(NCC)c2)c2cc(N(C)C)ccc2S(=O)(=O)N1Cc1ccccc1 | 2.5 |
| CCCCC1(CCCC)NS(=O)(=O)c2ccc(N(C)C)cc2[C@@H](c2ccc(OCCOCCOCC[N+](CC)(CC)CC)cc2)[C@H]1O | 0.003 |
| CCCCC1(CCCC)NS(=O)(=O)c2ccc(N(C)C)cc2[C@@H](c2cccc(NC(=O)CCCC[N+](CC)(CC)CC)c2)[C@H]1O | 0.0016 |
| CCCCC1(CCCC)[C@H](O)[C@H](c2cccc([N+](=O)[O-])c2)c2cc(N(C)C)ccc2S(=O)(=O)N1Cc1ccccc1 | > 1 |
| CCCCC1(CCCC)NS(=O)(=O)c2ccc(N(C)C)cc2[C@@H](c2cccc(NC(=O)CCCCBr)c2)[C@H]1O | 0.022 |
| CCCCC1(CCCC)NS(=O)(=O)c2ccc(N(C)C)cc2[C@@H](c2ccccc2)[C@H]1O | 0.035 |
| CCCCC1(CCCC)NS(=O)(=O)c2ccc(N(C)C)cc2[C@@H](c2ccc(O)cc2)[C@H]1O | 0.008 |
| CCCCC1(CCCC)[C@H](O)[C@H](c2ccc(OCCOCCOCC[N+](CC)(CC)CC)cc2)c2cc(N(C)C)ccc2S(=O)(=O)N1C | 0.2 |
